In data set [1] the target is IMP-1 (Serratia marcescens, UniProt P52699). In words: MBL inhibition, FC-5 fluorescence assay, IMP-1. In kind it is biochemical. The note with it: FC-5 cephalosporin substrate, fluorescence; ranges of obtained pIC50; read-out: pIC50 IMP-1 (converted). A digest of the protocol: (§1)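 Turnover of the fluorogenic cephalosporin FC-5 by each MBL, followed as initial rate of fluorescence increase (ex 380/em 460 nm). Dose-response curves fitted with a variable-slope normalized-response model; 4 intra-plate replicates per concentration.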
Sequence of IMP-1 (P52699 19-246, looked up, species assumed): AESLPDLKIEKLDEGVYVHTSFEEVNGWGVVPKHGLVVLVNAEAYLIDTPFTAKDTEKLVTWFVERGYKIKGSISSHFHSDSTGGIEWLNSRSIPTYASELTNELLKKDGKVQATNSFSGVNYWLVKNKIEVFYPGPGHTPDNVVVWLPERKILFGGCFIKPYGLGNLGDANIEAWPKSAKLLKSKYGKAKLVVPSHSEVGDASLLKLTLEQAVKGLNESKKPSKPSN

For data set [2], the target named is VIM-2 (Escherichia coli, UniProt Q5U7L7). In words: MBL inhibition, FC-5 fluorescence assay, VIM-2. In kind it is biochemical. The following applies: FC-5 cephalosporin substrate, ranges of obtained pIC50, read-out: pIC50 VIM-2 (converted). A digest of the protocol: as §1
The target in data set [3] is NDM-1 (Klebsiella pneumoniae, UniProt C7C422). In words: MBL inhibition, FC-5 fluorescence assay, NDM-1. In kind it is biochemical. The note with it: FC-5 cephalosporin substrate, fluorescence; ranges of obtained pIC50; read-out: pIC50 NDM-1 (converted). A digest of the protocol: as §1
Sequence of NDM-1 (C7C422 29-270, looked up, species assumed): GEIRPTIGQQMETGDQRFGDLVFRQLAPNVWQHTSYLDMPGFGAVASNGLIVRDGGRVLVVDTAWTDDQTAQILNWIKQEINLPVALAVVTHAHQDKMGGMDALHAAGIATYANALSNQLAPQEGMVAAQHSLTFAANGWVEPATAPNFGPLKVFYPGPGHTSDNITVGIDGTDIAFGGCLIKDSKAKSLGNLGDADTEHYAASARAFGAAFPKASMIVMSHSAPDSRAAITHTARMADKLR
Data set [4] in a line: Plasma protein binding, equilibrium dialysis, mouse plasma. In kind it is in vitro ADME. The following applies: pH 7.4, equilibrium dialysis (RED) 4 hours at 37° C., read-out: Plasma protein binding, fu, Mouse. The protocol:
(§2) The fraction of unbound compound (fu) in plasma from human or other animal species was determined by equilibrium dialysis at 37° C. for 4 hours using the Rapid Equilibrium Dialysis (RED) device (ThermoFisher Scientific). The test compound at a concentration of 10 μM was added to plasma and dialyzed against isotonic phosphate buffer (67 mM, pH 7.4) over 4 hours at 37° C. After dialysis, compound concentrations in buffer and plasma were quantified by LC-MS/MS. In parallel the stability of the compound in plasma was determined by incubating drug-spiked plasma (10 μM) at 37° C. for 4 hours, meanwhile the control plasma sample was kept in the freezer. The concentration of the compound in both samples was quantified by LC-MS/MS (Waters Corp, Milford, MA, USA).

For data set [5], the target named is VIM-1 (Pseudomonas aeruginosa, UniProt A0A0F7KYQ8). Description: MBL inhibition, FC-5 fluorescence assay, VIM-1. The following applies: FC-5 cephalosporin substrate, ranges of obtained pIC50, read-out: pIC50 VIM-1 (converted). In kind it is biochemical. A digest of the protocol: as §1
The nature of data set [6]: Plasma protein binding, equilibrium dialysis, human plasma. In kind it is in vitro ADME. The note with it: pH 7.4, equilibrium dialysis (RED) 4 hours at 37° C., read-out: Plasma protein binding, fu, Human. The protocol: as §2
For data set [7], the system named is Escherichia coli NDM-1. Description: Antibiotic susceptibility testing (MIC), EC NDM-1. In kind it is cell-based. The note with it: agar or broth dilution (CLSI/EUCAST). The protocol: (§3) Antibiotic susceptibility testing was performed using the agar or broth dilution method, in line with the Clinical and Laboratory Standards Institute (CLSI) and European Committee on Antimicrobial Susceptibility Testing (EUCAST) requirements.

In data set [8] the test system is Escherichia coli NDM-7. In words: Antibiotic susceptibility testing (MIC), EC NDM-7. In kind it is cell-based. The note with it: agar or broth dilution (CLSI/EUCAST). The protocol: as §3
Data set [9] deals with Acinetobacter baumannii NDM-1. In words: Antibiotic susceptibility testing (MIC), AB NDM-1. The note with it: agar or broth dilution (CLSI/EUCAST). In kind it is cell-based. The protocol: as §3

Twelve molecules from US20240246913A1, “2-CARBOXYL-INDOLE INHIBITORS OF METALLO-BETA-LACTAMASES” (Oxford University Innovation Limited, priority 2021, published 2024) can be followed below.

Structures are written as SMILES.

Regarding `CC(NS(C)(=O)=O)c1cccc2c(-c3cc(Cl)cc(Cl)c3)c(C(=O)O)[nH]c12` (stereo not shown) [IC-2, 3-(3,5-Dichlorophenyl)-7-(1-(methylsulfonamido)ethyl)-1H-indole-2-carboxylic acid], the IC50 in data set [1], in [2], in data set [3] and in data set [5] was above 10 nM throughout. Also, the fraction unbound at 4 h, 10 μM in [4] and in [6] was below 0.005 each time.
As to `CC(c1cccc2c(-c3ccc(CS(C)(=O)=O)c(F)c3)c(C(=O)O)[nH]c12)N1C(=O)CN(CCCN)C1=O` (stereo not shown) [IC-13, 7-[1-[3-(3-Aminopropyl)-2,5-dioxo-imidazolidin-1-yl]ethyl]-3-[3-fluoro-4-(methylsulfonylmethyl)phenyl]-1H-indole-2-carboxylic acid], the IC50 in data set [1] is above 10 nM; in [2], above 10 nM; in [3], below 0.1 nM; in data set [5], 1 to 10 nM. The results for the fraction unbound at 4 h, 10 μM in data set [4] and in data set [6] were 0.005 to 0.05 and 0.05 to 0.25, respectively.
As to `C[C@@H](c1cccc2c(-c3ccc(=O)[nH]c3)c(C(=O)O)[nH]c12)N1C[C@]2(C[C@@H](CN)C2)OC1=O` [IC-15, 7-((S)-1-((2S,4r)-2-(aminomethyl)-6-oxo-5-oxa-7-azaspiro[3.4]octan-7-yl)ethyl)-3-(6-oxo-1,6-dihydropyridin-3-yl)-1H-indole-2-carboxylic acid], the “MIC values EC NDM-1” value in [7] is given as “B (B MIC values 2 ÷ 8)”. The “MIC values EC NDM-7” value in data set [8] was “A (A = MIC values ≤ 1)”. Besides, the fraction unbound at 4 h, 10 μM in data set [4] was in the range of 0.005 to 0.05; in data set [6], 0.05 to 0.25. Besides, the “MIC values AB NDM-1” value in data set [9] is recorded as “C (C = MIC values > 8)”.
As for `C[C@@H](c1cccc2c(-c3ccc(CS(C)(=N)=O)c(F)c3)c(C(=O)O)[nH]c12)N1C[C@]2(C[C@@H](CN)C2)OC1=O` (stereo partly drawn) [IC-19, 7-((1S)-1-(2-(aminomethyl)-6-oxo-5-oxa-7-azaspiro[3.4]octan-7-yl)ethyl)-3-(3-fluoro-4-((S-methylsulfonimidoyl)methyl)phenyl)-1H-indole-2-carboxylic acid], in [7], the “MIC values EC NDM-1” value is reported as “B (B MIC values 2 ÷ 8)”. Further, in [8], the “MIC values EC NDM-7” value is “A (A = MIC values ≤ 1)”. Besides, the IC50 in [1] was above 10 nM; in data set [2], 0.1 to 1 nM; in data set [3], below 0.1 nM; in [5] it was 0.1 to 1 nM. For the same molecule, the fraction unbound at 4 h, 10 μM was 0.05 to 0.25 in data set [4] and above 0.25 in data set [6]. Besides, the “MIC values AB NDM-1” value in data set [9] is “B (B MIC values 2 ÷ 8)”.
For `C[C@@H](c1cccc2c(-c3c(F)cc(NS(C)(=O)=O)cc3F)c(C(=O)O)[nH]c12)N1C[C@]2(C[C@@H](CN)C2)OC1=O` [IC-21, 7-((S)-1-((2S,4r)-2-(aminomethyl)-6-oxo-5-oxa-7-azaspiro[3.4]octan-7-yl)ethyl)-3-(2,6-difluoro-4-(methylsulfonamido)phenyl)-1H-indole-2-carboxylic acid], in data set [7], the “MIC values EC NDM-1” value is listed as “C (C = MIC values > 8)”. Also, in data set [8], the “MIC values EC NDM-7” value is recorded as “B (B MIC values 2 ÷ 8)”. In addition, the IC50 is above 10 nM in data set [1], 1 to 10 nM in data set [2], 1 to 10 nM in [3] and above 10 nM in data set [5]. The results for the fraction unbound at 4 h, 10 μM in data set [4] and in data set [6] were 0.005 to 0.05 and 0.05 to 0.25, respectively. The “MIC values AB NDM-1” value in data set [9] is “C (C = MIC values > 8)”.
Take `C[C@@H](c1cccc2c(-c3ccc4c(c3)CNC4=O)c(C(=O)O)[nH]c12)N1C[C@]2(C[C@@H](CN)C2)OC1=O` [IC-22, 7-((S)-1-((2R,4s)-2-(aminomethyl)-6-oxo-5-oxa-7-azaspiro[3.4]octan-7-yl)ethyl)-3-(1-oxoisoindolin-5-yl)-1H-indole-2-carboxylic acid]: the “MIC values EC NDM-1” value in [7] was “A (A = MIC values ≤ 1)”. For the same molecule, the “MIC values EC NDM-7” value in data set [8] was “A (A = MIC values ≤ 1)”. Moreover, the IC50 in data set [1] was above 10 nM; in [2], below 0.1 nM; in data set [3] it was 0.1 to 1 nM; in data set [5] it was 1 to 10 nM. The fraction unbound at 4 h, 10 μM in data set [4] lay in the range of 0.005 to 0.05; in [6] it was 0.05 to 0.25. Besides, the “MIC values AB NDM-1” value in data set [9] is given as “B (B MIC values 2 ÷ 8)”.
With `C[C@@H](c1cccc2c(-c3ccc(NS(=O)(=O)C4COC4)c(F)c3)c(C(=O)O)[nH]c12)N1C[C@]2(C[C@@H](CN)C2)OC1=O` [IC-24, 7-((S)-1-((2S,4r)-2-(aminomethyl)-6-oxo-5-oxa-7-azaspiro[3.4]octan-7-yl)ethyl)-3-(3-fluoro-4-(oxetane-3-sulfonamido)phenyl)-1H-indole-2-carboxylic acid], in data set [7], the “MIC values EC NDM-1” value was “A (A = MIC values ≤ 1)”. Also, in data set [8], the “MIC values EC NDM-7” value is recorded as “A (A = MIC values ≤ 1)”. Besides, the IC50 in data set [1] is above 10 nM; in [2] it was 0.1 to 1 nM; in data set [3], below 0.1 nM; in [5], 1 to 10 nM. For the same molecule, the fraction unbound at 4 h, 10 μM in data set [4] and in data set [6] was 0.05 to 0.25 throughout. In addition, the “MIC values AB NDM-1” value in data set [9] is given as “B (B MIC values 2 ÷ 8)”.
As for `CNc1ccc(-c2c(C(=O)O)[nH]c3c([C@H](C)N4C[C@]5(C[C@@H](CN)C5)OC4=O)cccc23)cn1` [IC-36, 3-[6-(methylamino)pyridin-3-yl]-7-[(1S)-1-[(2r,4r)-2-(aminomethyl)-6-oxo-5-oxa-7-azaspiro[3.4]octan-7-yl]ethyl]-1H-indole-2-carboxylic acid], the “MIC values EC NDM-1” value in data set [7] is reported as “A (A = MIC values ≤ 1)”. For the same molecule, in data set [8], the “MIC values EC NDM-7” value is “A (A = MIC values ≤ 1)”. Moreover, the IC50 in [1], in data set [2], in data set [3] and in [5] was above 10 nM in each case. For the same molecule, in data set [9], the “MIC values AB NDM-1” value is “B (B MIC values 2 ÷ 8)”. The fraction unbound at 4 h, 10 μM in data set [6] lay within 0.05 to 0.25.
Consider `C[C@@H](c1cccc2c(-c3ccc(N)nc3)c(C(=O)O)[nH]c12)N1C[C@]2(C[C@@H](CN)C2)OC1=O` [IC-37, 3-(6-aminopyridin-3-yl)-7-[(1S)-1-[(2r,4r)-2-(aminomethyl)-6-oxo-5-oxa-7-azaspiro[3.4]octan-7-yl]ethyl]-1H-indole-2-carboxylic acid], for which the “MIC values EC NDM-1” value in data set [7] was “A (A = MIC values ≤ 1)”. The “MIC values EC NDM-7” value in [8] is listed as “A (A = MIC values ≤ 1)”. The IC50 is above 10 nM in [1], 1 to 10 nM in data set [2], 1 to 10 nM in data set [3] and above 10 nM in data set [5]. For the same molecule, the “MIC values AB NDM-1” value in data set [9] is “B (B MIC values 2 ÷ 8)”. In data set [6], the fraction unbound at 4 h, 10 μM was 0.05 to 0.25.
With `C[C@@H](c1cccc2c(-c3ccncc3)c(C(=O)O)[nH]c12)N1C[C@]2(C[C@@H](CN)C2)OC1=O` [IC-38, 3-(pyridin-4-yl)-7-[(1S)-1-[(2r,4r)-2-(aminomethyl)-6-oxo-5-oxa-7-azaspiro[3.4]octan-7-yl]ethyl]-1H-indole-2-carboxylic acid], in data set [7], the “MIC values EC NDM-1” value is “A (A = MIC values ≤ 1)”. For the same molecule, the “MIC values EC NDM-7” value in data set [8] is “A (A = MIC values ≤ 1)”. Further, the IC50 in data set [1] was above 10 nM; in data set [2] it was 0.1 to 1 nM; in data set [3] it was 0.1 to 1 nM; in [5], 1 to 10 nM. Further, in data set [9], the “MIC values AB NDM-1” value is “B (B MIC values 2 ÷ 8)”. Moreover, the fraction unbound at 4 h, 10 μM in data set [6] fell in the range of 0.005 to 0.05.
Consider `C[C@@H](c1cccc2c(-c3cccnc3)c(C(=O)O)[nH]c12)N1C[C@]2(C[C@@H](CN)C2)OC1=O` [IC-39, 3-(pyridin-3-yl)-7-[(1S)-1-[(2r,4r)-2-(aminomethyl)-6-oxo-5-oxa-7-azaspiro[3.4]octan-7-yl]ethyl]-1H-indole-2-carboxylic acid], for which the “MIC values EC NDM-1” value in data set [7] was “A (A = MIC values ≤ 1)”. Further, the “MIC values EC NDM-7” value in data set [8] was “A (A = MIC values ≤ 1)”. For the same molecule, the IC50 in [1] was above 10 nM; in data set [2], 1 to 10 nM; in data set [3], 0.1 to 1 nM; in data set [5], 0.1 to 1 nM. In addition, in data set [9], the “MIC values AB NDM-1” value is recorded as “B (B MIC values 2 ÷ 8)”. Besides, the fraction unbound at 4 h, 10 μM in data set [6] lay in the range of 0.005 to 0.05.
Regarding `CC(OCC1CC[N+](C)(C)CC1)c1cccc2c(-c3ccc(CS(C)(=O)=O)c(F)c3)c(C(=O)[O-])[nH]c12` (stereo not shown) [IC-90, 7-(1-((1,1-Dimethylpiperidin-1-ium-4-yl)methoxy)ethyl)-3-(3-fluoro-4-((methylsulfonyl)methyl)phenyl)-1H-indole-2-carboxylate], the IC50 in data set [1] was above 10 nM; in data set [2], 1 to 10 nM; in data set [3], 1 to 10 nM; in data set [5] it was 1 to 10 nM. For the same molecule, the fraction unbound at 4 h, 10 μM is 0.05 to 0.25 in data set [4] and above 0.25 in data set [6].
